What was measured:
P. falciparum strain D6 = test: [3H]-hypoxanthine growth inhibition assay, P. falciparum D6; type: cell-based; conditions: Plasmodium falciparum; P. falciparum D6 (sensitive to chloroquine and pyrimethamine), [3H]-hypoxanthine incorporation; read-out: D6 IC50
Procedure, shortened: (§1)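 Parasites cultured in human O Rh+ RBCs in RPMI-1640-LPLF (low PABA and folic acid) with 10% human plasma, pH 6.9, 37° C, 5% O2/5% CO2/90% N2. Sorbitol-synchronised ring-stage cultures started at 1% parasitaemia; growth measured as [3H]-hypoxanthine incorporation in hypoxanthine-free medium. Compound stocks 1 mM in DMSO.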

P. falciparum strain W2 = test: [3H]-hypoxanthine growth inhibition assay, P. falciparum W2; type: cell-based; conditions: Plasmodium falciparum; P. falciparum W2 (resistant to chloroquine and pyrimethamine), [3H]-hypoxanthine incorporation; read-out: W2 IC50
Procedure, shortened: as §1

[1] = Solubility in hERG test solution (HB-PS + 0.3% DMSO); type: physicochemical; conditions: 30 μM nominal concentration
Protocol: All chemicals used in solution preparation were purchased from Sigma-Aldrich (St. Louis, Mo.) unless otherwise noted and were of ACS reagent grade purity or higher. Stock solutions of the test article and the positive control were prepared in dimethyl sulfoxide (DMSO) and stored frozen. Test article and positive control concentrations were prepared fresh daily by diluting stock solutions into a HEPES-buffered physiological saline (HB-PS) solution (composition in mM): NaCl, 137; KCl, 4.0; CaCl2, 1.8; MgCl2, 1; HEPES, 10; Glucose, 10; pH adjusted to 7.4 with NaOH (prepared weekly and refrigerated until use).
Experiments were performed as outlined in the section entitled Experimental Procedures. Concentrations were selected to evaluate the concentration-response relationship of each test article based on the initial results or the solubility limits in vehicle. Each concentration was tested in at least three cells (n≧3).
Each test article at 10 μM was applied to at least 3 cells (n≧3).

| SMILES | IC50 (P. falciparum strain D6) [nM] | IC50 (P. falciparum strain W2) [nM] | Solubility in hERG test solution [1] |
| --- | --- | --- | --- |
| CC(C)(C)NCc1cc(C(C)(C)C)cc(-c2cnc(C(F)(F)F)nc2)c1O.Cl [Example 33, 4-(tert-Butyl)-2-((tert-butylamino)methyl)-6-(2-(trifluoromethyl)pyrimidin-5-yl)phenol hydrochloride] | 10 | 3 | not in solution |
| CC(C)(C)NCc1cc(C(C)(C)C)cc(-c2cnc(C(F)(F)F)c(F)c2)c1O.Cl [Example 34, 4-(tert-Butyl)-2-((tert-butylamino)methyl)-6-(5-fluoro-6-(trifluoromethyl)pyridin-3-yl)phenol hydrochloride] | 8 | 2 | not in solution |
| CC(C)(C)NCc1cc(C(C)(C)C)cc(-c2ccc(C(F)(F)F)nc2)c1O.Cl [Example 1, 4-(tert-Butyl)-2-((tert-butylamino)methyl)-6-(6-(trifluoromethyl)pyridin-3-yl)phenol hydrochloride] | 13 | 4 | – |
